Measurements taken from patent US10946383B2, “Oligonucleotide encoded chemical libraries” (Plexium, Inc., priority 2017, dated 2021).

Molecular target: Cathepsin-D protease (Homo sapiens, UniProt P07339)
Assay: Cathepsin-D protease inhibition assay in picowells with bead-released compound and Peptide Q-Fluor substrate
Format: biochemical
Conditions: compound released from 10 μm TentaGel beads by UV (365 nm, 77 J/cm^2) to approximately 13 μM; 30 min, 37° C.

Chain of Cathepsin-D protease (P07339 65-412): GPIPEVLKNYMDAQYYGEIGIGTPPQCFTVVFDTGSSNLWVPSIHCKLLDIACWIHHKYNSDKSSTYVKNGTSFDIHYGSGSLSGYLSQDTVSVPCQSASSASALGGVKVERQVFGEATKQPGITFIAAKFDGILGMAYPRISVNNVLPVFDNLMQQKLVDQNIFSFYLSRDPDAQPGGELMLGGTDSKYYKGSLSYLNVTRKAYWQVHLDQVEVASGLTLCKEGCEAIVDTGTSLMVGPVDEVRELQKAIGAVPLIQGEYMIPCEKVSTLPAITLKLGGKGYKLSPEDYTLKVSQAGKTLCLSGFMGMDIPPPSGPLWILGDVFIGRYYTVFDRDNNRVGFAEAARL

CC(C)[C@H](NC(=O)OCC1c2ccccc2-c2ccccc21)C(=O)O [negative control beads, Fmoc-Valine]
Cathepsin-D inhibition (fluorescence of cleaved Peptide Q-Fluor substrate): no Cathepsin-D inhibition
